Laboratory results: PubChem BioAssay (NCI)
“And” between values parts separate entries of the source, which are not always exact repeats. Equal values may be shown once.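 The compound was tested at five concentrations on cells cultured in 96-well plates, with a 48-hour exposure period. GI50 = concentration required for 50% inhibition of growth. TGI is the concentration that stops growth completely.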

Key:
Test in all cases: NCI tumour cell line growth inhibition, 48 h
[1] = tested on: A549 NSCLC
[2] = tested on: HCT-116 colon
[3] = tested on: HL-60(TB) leukemia
[4] = tested on: HOP-62 NSCLC
[5] = tested on: MDA-MB-231 breast
[6] = tested on: MOLT-4 leukemia
[7] = tested on: NCI-H460 lung
[8] = tested on: OVCAR-5 ovarian
[9] = tested on: RPMI-8226 leukemia
[10] = tested on: SF-268 CNS
[11] = tested on: SNB-19 CNS
[12] = tested on: U251 CNS
[13] = tested on: UO-31 renal
[14] = tested on: CAKI-1 renal

| SMILES | TGI [1] | TGI [2] | TGI [3] | TGI [4] | TGI [5] | TGI [6] | TGI [7] | TGI [8] | TGI [9] | TGI [10] | TGI [11] | TGI [12] | TGI [13] | GI50 [1] | TGI [14] | GI50 [6] | GI50 [10] | GI50 [2] | GI50 [13] | GI50 [5] |
| --- | --- | --- | --- | --- | --- | --- | --- | --- | --- | --- | --- | --- | --- | --- | --- | --- | --- | --- | --- | --- |
| CC(=O)NC(CCC(=O)C=[N+]=N)C(=O)O (stereo not drawn) | > 100 µM | > 100 µM | > 100 µM | > 100 µM | > 100 µM | > 100 µM | > 100 µM | > 100 µM | > 100 µM | > 100 µM | > 100 µM | > 100 µM | > 100 µM |  |  |  |  |  |  |  |
| CC1CCC2(C(=O)O)CCC3(C)C(=CCC4C5(C)CCC(O)C(C)(C)C5CCC43C)C2C1C (stereo not drawn) | 21.4 µM and > 100 µM | 17.9 µM and > 100 µM | 19 µM and 6.49 µM | 21.8 µM and 39.1 µM | 26.2 µM | 16.7 µM and 37.2 µM | 24.8 µM | 19.6 µM and 23.2 µM | 24.3 µM and 31.5 µM | 17.7 µM and 24.6 µM | 17.9 µM | 19.8 µM and > 100 µM | 16.6 µM and 14.5 µM | 10.1 µM and 26.4 µM | 16.6 µM and 17.5 µM | 3.66 µM and 12.1 µM | 1.29 µM and 10.7 µM |  |  |  |
| CC1CC[C@@]2(OC1)OC1CC3C4CCC5C[C@@H](OC6OC(CO)C(OC7OC(CO)C(O)C(OC8OC(CO)C(O)C(OC9OC(CO)C(O)C(O)C9O)C8O)C7OC7OC(CO)C(O)C(O)C7O)C(O)C6O)[C@H](O)C[C@]5(C)C4CC[C@]3(C)C1[C@@H]2C (stereo partly drawn) | > 80.5 µM | > 80.5 µM | > 80.5 µM | > 80.5 µM | > 80.5 µM |  | > 80.5 µM | > 80.5 µM |  | > 80.5 µM | > 80.5 µM | > 80.5 µM |  |  | > 80.5 µM |  |  |  |  |  |
| CNC(=O)SCC(N)C(=O)O (stereo not drawn) | > 100 µM | > 100 µM | > 100 µM | > 100 µM |  | > 100 µM | > 100 µM | > 100 µM | > 100 µM | > 100 µM | > 100 µM | > 100 µM | > 100 µM |  | > 100 µM |  |  |  |  |  |
| Cc1[nH]nc(N)c1C(N)=O | > 100 µM |  | > 100 µM |  |  | > 100 µM |  | > 100 µM | > 100 µM | > 100 µM | > 100 µM |  | > 100 µM |  | > 100 µM |  |  |  |  |  |
| CC(=O)OC/C=C\Cn1nc(Br)c(=O)[nH]c1=O | 32.3 µM |  | 17.6 µM | 45.1 µM | 43.4 µM |  | 26.7 µM | 31.8 µM | 72.7 µM | 31.5 µM | 37.7 µM | 22.6 µM | 31.2 µM |  | 22.8 µM |  |  |  |  |  |
| COc1cc(OC)c(/C=C\c2cc(/C=C/c3c(OC)cc(OC)cc3OC)c3ccccc3[n+]2C)c(OC)c1 | > 41.7 µM | > 28.3 µM | 5.62 µM | 16.3 µM | 10.2 µM | 5.48 µM | 8.92 µM | 57 µM |  | 10.5 µM | 40 µM | > 61.4 µM | > 55.4 µM |  |  |  |  |  |  |  |
| O=C(N/N=C/c1cc(Cl)cc(Cl)c1[O-])c1ccccc1O.O=C(N/N=C/c1cc(Cl)cc(Cl)c1[O-])c1ccccc1O.[Zn+2] | 13.1 µM | 14.5 µM | 0.715 µM |  |  | 18 µM |  | 14.6 µM |  | 17.7 µM | 15 µM | 5.93 µM | 10.6 µM | 0.527 µM | 8.45 µM | 0.0115 µM |  | 337 nM |  |  |
| OC1CCOc2ccccc21 (stereo not drawn) | > 100 µM | > 100 µM | > 100 µM | > 100 µM |  | > 100 µM | > 100 µM | > 100 µM | > 100 µM | > 100 µM | > 100 µM | > 100 µM | > 100 µM |  | > 100 µM |  |  |  |  |  |
| CCC(=O)c1ccc2[nH]c3c(C)c4c(=O)cc(C)[nH]c4c(C)c3c2c1 | > 100 µM | > 100 µM | > 100 µM | > 100 µM | > 100 µM | > 100 µM | > 100 µM | > 100 µM |  | > 100 µM | > 100 µM | > 100 µM | > 100 µM |  | > 100 µM |  |  |  |  |  |
| NC(=O)CCC(N=C(N)c1csc(C2OC(CO)C(O)C2O)n1)C(=O)O (stereo not drawn) | > 100 µM |  | > 100 µM |  |  | > 100 µM |  | > 100 µM | > 100 µM | > 100 µM |  | > 100 µM |  |  | > 100 µM |  |  |  |  |  |
| COC1C=COC2(C)Oc3c(C)c(O)c4c(O)c(c(/C=N/N5CCN(N)CC5)c(O)c4c3C2=O)NC(=O)C(C)=CC=CC(C)C(O)C(C)C(O)C(C)C(OC(C)=O)C1C (stereo not drawn) | > 100 µM | 80.7 µM | > 100 µM | > 100 µM |  | > 100 µM |  | > 100 µM | 88.8 µM | > 100 µM | > 100 µM | > 100 µM | > 100 µM |  | > 100 µM |  |  |  |  |  |
| CCOC(=O)c1c(Cl)nc2ccccc2c1N=[N+]=[N-] | > 100 µM | 43 µM | > 100 µM | > 100 µM | 30.1 µM | > 100 µM | 63.6 µM | 41.1 µM | > 100 µM | 30.5 µM | > 100 µM | 62.4 µM | 36.5 µM |  | 43.4 µM |  |  |  |  |  |
| CCCC(=O)NC1CCc2cc(OC)c(OC)c(OC)c2-c2ccc(OC)c(=O)cc21 (stereo not drawn) | > 100 µM | > 100 µM | 0.158 µM | > 100 µM |  |  | > 100 µM |  | > 100 µM | > 100 µM | > 100 µM | > 100 µM | 75.9 µM |  |  |  |  |  | 138 nM |  |
| C1=C(c2ccccc2)Nc2nnnn2C1c1ccccc1 (stereo not drawn) | > 100 µM | 22.3 µM | 64.4 µM | > 100 µM | > 100 µM | 60.3 µM | > 100 µM | > 100 µM |  | > 100 µM | > 100 µM | 52 µM | > 100 µM |  | > 100 µM |  |  |  |  |  |
| O=S(=O)(O)c1ccc(N=Nc2c(O)ccc3cc(Br)ccc23)cc1 | > 100 µM | > 100 µM |  | > 100 µM | > 100 µM | > 100 µM |  | > 100 µM | > 100 µM | > 100 µM | > 100 µM | > 100 µM | > 100 µM |  | > 100 µM |  |  |  |  |  |
| S=C1CC(c2ccccc2)Sc2ccccc2N1 (stereo not drawn) |  | > 100 µM | > 100 µM | 60.1 µM | > 100 µM | > 100 µM | > 100 µM | > 100 µM | > 100 µM | > 100 µM | > 100 µM | > 100 µM | > 100 µM |  | > 100 µM |  |  |  |  |  |
| [O-][n+]1ccccc1S | 38.5 µM | 4.5 µM |  | 13.1 µM | > 100 µM |  | 5.21 µM | > 100 µM | 6.47 µM | > 100 µM | > 100 µM | > 100 µM | > 100 µM |  | 8.09 µM |  |  |  |  | 6.73 µM |
| C/C=C/C1=CC(=O)C(O)C1O (stereo not drawn) | 107 µM | 96 µM | 57.5 µM | 126 µM |  | 109 µM | 51.4 µM | 130 µM | 102 µM | 91.2 µM | 124 µM | 129 µM | 106 µM |  | 43.7 µM |  |  |  |  |  |
| CC(=O)NC(c1nc2cc(C)c(C)cc2[nH]1)c1nc2cc(C)c(C)cc2[nH]1 | 65.2 µM | 53.7 µM | > 100 µM |  | 76 µM | 26.6 µM | 32.8 µM | > 100 µM | 46.4 µM | > 100 µM | > 100 µM | 57.9 µM | 53.2 µM |  | 52.2 µM |  |  |  |  |  |
